Assay [1] has as its system Hathewaya histolytica. The experiment in a line: Inhibition of Clostridium histolyticum collagenase-induced degradation of human molar dentin assessed as reduction in degradation after 24 hrs.
Assay [2] relates to Dentine. The experiment in a line: Induction of apparent modulus of elasticity in human molar dentine after 1 hr by bending method. The class given is functional, tissue-based.

Structures are written as SMILES. The source made the active and inactive calls. The rule behind the calls is not given here.

For `Oc1cc(O)c2c(c1)O[C@@]1(c3ccc(O)c(O)c3)Oc3cc(O)c4c(c3[C@@H]2[C@H]1O)O[C@H](c1ccc(O)c(O)c1)[C@H](O)[C@H]4c1c(O)cc(O)c2c1O[C@H](c1ccc(O)c(O)c1)[C@H](O)C2`, the inhibition result in assay [1] was “Active”. Further, in assay [2], the outcome was Active.
In the case of `Oc1cc(O)c2c(c1)O[C@H](c1ccc(O)c(O)c1)[C@H](O)[C@H]2c1c(O)c2c(c3c1O[C@]1(c4ccc(O)c(O)c4)Oc4cc(O)cc(O)c4[C@H]3[C@H]1O)O[C@H](c1ccc(O)c(O)c1)[C@H](O)[C@H]2c1c(O)cc(O)c2c1O[C@H](c1ccc(O)c(O)c1)[C@H](O)C2`, the inhibition entry in assay [1] was “Active”. For the same compound, the result in assay [2] was Active.
Consider `Oc1cc(O)c2c(c1)O[C@@]1(c3ccc(O)c(O)c3)Oc3cc(O)c4c(c3[C@@H]2[C@H]1O)O[C@H](c1ccc(O)c(O)c1)[C@H](O)[C@H]4c1c(O)cc2c(c1O)[C@@H]1c3c(cc(O)c4c3O[C@H](c3ccc(O)c(O)c3)[C@@H](O)C4)O[C@](c3ccc(O)c(O)c3)(O2)[C@@H]1O`, for which, in assay [1], the inhibition entry is “Active”. Moreover, the result in assay [2] was Active.

The record behind these values is ChEMBL document CHEMBL4699624, “Targeting Trimeric and Tetrameric Proanthocyanidins of Cinnamomum verum Bark as Bioactives for Dental Therapies” (J Nat Prod, 2020).
